These molecules were tested against Porcine DAAO (Sus scrofa (Pig), UniProt P00371) (assay: In vitro D-amino acid oxidase (DAAO) assay, porcine enzyme). Settings: values marked *: Porcine DAAO was used to measure inhibitory potency; read-out: Inhibition of DAAO IC50.
Format: biochemical
Method: (§1) A reliable 96-well plate D-amino acid oxidase (DAAO) assay was developed based on previously published reports (J. Biol. Chem. 277: 27782 (2002)). […] All reactions were carried out for 20 min at room temperature in a 100-μL volume in Tris buffer (50 mM, pH 8.5). Additionally, stock solutions and serial dilutions of potential DAO inhibitors were made in 10:90 DMSO:buffer with a final assay DMSO concentration of 1%.

Sequence of Porcine DAAO (P00371 whole entry): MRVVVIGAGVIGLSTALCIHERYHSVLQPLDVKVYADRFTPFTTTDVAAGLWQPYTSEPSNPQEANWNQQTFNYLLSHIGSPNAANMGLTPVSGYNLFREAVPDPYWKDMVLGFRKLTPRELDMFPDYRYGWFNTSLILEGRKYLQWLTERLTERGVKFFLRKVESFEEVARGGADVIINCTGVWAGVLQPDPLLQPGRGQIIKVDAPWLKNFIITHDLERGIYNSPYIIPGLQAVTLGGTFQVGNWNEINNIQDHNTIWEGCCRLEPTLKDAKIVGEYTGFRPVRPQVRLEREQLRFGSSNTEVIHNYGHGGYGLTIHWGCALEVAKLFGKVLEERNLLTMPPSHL

IC50	SMILES
300 nM	CCOc1ccc(CCn2nc(O)c(=O)[nH]c2=O)cc1 [Compound 10t, 2-(4-Ethoxyphenethyl)-6-hydroxy-1,2,4-triazine-3,5(2H,4H)-dione]
600 nM	Cc1ccc2ccccc2c1Cn1nc(O)c(=O)[nH]c1=O [Compound 10u, 6-Hydroxy-2-((2-methylnaphthalen-1-yl)methyl)-1,2,4-triazine-3,5(2H,4H)-dione]
1000 nM	O=c1[nH]c(=O)n(CCc2ccc(N3CCOCC3)cc2)nc1O [Compound 32, 6-Hydroxy-2-(4-morpholinophenethyl)-1,2,4-triazine-3,5(2H,4H)-dione]

Each molecule was assayed against human recombinant D-amino acid oxidase (Homo sapiens (Human), UniProt P14920) (assay: In vitro D-amino acid oxidase (DAAO) assay, 96-well plate). Settings: human recombinant DAAO; D-serine 5 mM, FAD 1 μM, 20 min, room temperature, Tris buffer pH 8.5; read-out: Inhibition of DAAO IC50.
Format: biochemical
Method: as §1

Sequence of human recombinant D-amino acid oxidase (P14920 whole entry): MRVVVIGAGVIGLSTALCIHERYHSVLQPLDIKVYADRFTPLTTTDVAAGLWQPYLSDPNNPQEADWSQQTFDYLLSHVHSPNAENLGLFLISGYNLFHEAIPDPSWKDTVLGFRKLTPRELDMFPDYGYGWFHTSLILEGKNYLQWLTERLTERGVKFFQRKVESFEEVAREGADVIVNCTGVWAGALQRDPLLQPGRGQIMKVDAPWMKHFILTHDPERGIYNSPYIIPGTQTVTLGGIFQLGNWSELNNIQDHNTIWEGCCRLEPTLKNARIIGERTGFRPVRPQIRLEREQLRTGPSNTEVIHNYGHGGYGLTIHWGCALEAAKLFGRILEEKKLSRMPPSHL

SMILES	IC50
O=c1[nH]c(=O)n(Cc2cccc3ccsc23)nc1O [Compound 10q, 2-(Benzo[b]thiophen-7-ylmethyl)-6-hydroxy-1,2,4-triazine-3,5(2H,4H)-dione]	2000 nM
CN(C)CCn1nc(O)c(=O)[nH]c1=O [Compound 12a, 2-(2-(Dimethylamino)ethyl)-6-hydroxy-1,2,4-triazine-3,5(2H,4H)-dione]	5000 nM
CC(C)N1CCN(CCn2nc(O)c(=O)[nH]c2=O)CC1 [Compound 12b, 6-Hydroxy-2-(2-(4-isopropylpiperazin-1-yl)ethyl)-1,2,4-triazine-3,5(2H,4H)-dione]	9000 nM
O=c1[nH]c(=O)n(CCN2CCN(c3ccccc3F)CC2)nc1O [Compound 12c, 2-(2-(4-(2-Fluorophenyl)piperazin-1-yl)ethyl)-6-hydroxy-1,2,4-triazine-3,5(2H,4H)-dione]	3000 nM
O=c1[nH]c(=O)n(CCN2CCc3ccccc3C2)nc1O [Compound 12d, 2-(2-(3,4-Dihydroisoquinolin-2(1H)-yl)ethyl)-6-hydroxy-1,2,4-triazine-3,5(2H,4H)-dione]	700 nM
O=c1[nH]c(=S)n(CCc2ccccc2)nc1O [Compound 16, 6-Hydroxy-2-phenethyl-3-thioxo-3,4-dihydro-1,2,4-triazin-5(2H)-one]	50 nM
O=C(Cn1nc(O)c(=O)[nH]c1=O)c1ccccc1 [Compound 20, 6-Hydroxy-2-(2-oxo-2-phenylethyl)-1,2,4-triazine-3,5(2H,4H)-dione]	1000 nM
O=c1[nH]c(=O)n(CC(O)c2ccccc2)nc1O (stereo not drawn) [Compound 21, 6-Hydroxy-2-(2-hydroxy-2-phenylethyl)-1,2,4-triazine-3,5(2H,4H)-dione]	1000 nM
O=c1[nH]c(=O)n(Cc2cccc3cccnc23)nc1O [Compound 25a, 6-Hydroxy-2-(quinolin-8-ylmethyl)-1,2,4-triazine-3,5(2H,4H)-dione]	3000 nM
Cc1ccc(Cn2nc(O)c(=O)[nH]c2=O)c2ccccc12 [Compound 25c, 6-Hydroxy-2-((4-methylnaphthalen-1-yl)methyl)-1,2,4-triazine-3,5(2H,4H)-dione]	1000 nM

Other lines, results leading:

IC50	SMILES
200 nM	O=c1[nH]c(=O)n(CCc2cc(F)cc(F)c2)nc1O [Compound 10r, 2-(3,5-Difluorophenethyl)-6-hydroxy-1,2,4-triazine-3,5(2H,4H)-dione]
200 nM	O=c1[nH]c(=O)n(Cc2ccc(F)c3ccccc23)nc1O [Compound 25b, 2-((4-Fluoronaphthalen-1-yl)methyl)-6-hydroxy-1,2,4-triazine-3,5(2H,4H)-dione]
80 nM	O=c1[nH]c(=O)n(Cc2cccc3c(F)cccc23)nc1O [Compound 10s, 2-((5-Fluoronaphthalen-1-yl)methyl)-6-hydroxy-1,2,4-triazine-3,5(2H,4H)-dione]
80 nM	O=c1[nH]c(=O)n(CCc2ccc(-c3ccccc3F)cc2)nc1O [Compound 30, 2-(2-(2′-Fluorobiphenyl-4-yl)ethyl)-6-hydroxy-1,2,4-triazine-3,5(2H,4H)-dione]
50 nM	O=c1[nH]c(=O)n(Cc2cccc3cc(Br)ccc23)nc1O [Compound 25d, 2-((6-Bromonaphthalen-1-yl)methyl)-6-hydroxy-1,2,4-triazine-3,5(2H,4H)-dione]

Reference: US9505753B2, “Inhibitors of D-amino acid oxidase” (THE JOHNS HOPKINS UNIVERSITY, priority 2012, dated 2016)
